Test results as given in patent publication US20260072021A1, “SYSTEM, METHOD, AND APPARATUS FOR MICRONEEDLE ARRAY-BASED IMM[…] MULTIPLEX DETECTION OF BIOMARKERS” (The General Hospital Corporation, priority 2022, published 2026).

Assays:
[1] = Pharmacokinetic study: blood concentrations of cocaine and BZE in mice after IP cocaine (LC-MS); assay type: in vivo; conditions: cocaine 1.5 mg/Kg IP, blood sampled at 0, 0.5, 1 and 5 min post-injection
Procedure: Panel A. Time-dependent blood concentrations of COC and BZE in mice receiving 1.5 mg/Kg cocaine per mouse via IP injection. Panel B. Experimental setup of in vivo detection of circulating COC/BZE using MN-based aptasensor on a B6 black mouse. Panel C. Time-dependent fluorescence intensity of an individual MN that pierces into the mouse skin.
An optical fiber of 500 um in diameter was engineered including 6 emission light collection fibers each at 125 um in diameter, surrounding the single excitation light fiber at the center (FIGS. 13a & 13c). The excitation laser (532-589 nm) is administered directly to the upper dermis via the fiber and transparent MNA to induce skin capillary leakage or extravasation of biomarkers. […] To validate this, cocaine was IP administered at 1.5 mg/Kg per mouse and blood was sampled at 0, 0.5, 1, and 5 min, post-injection. […] When the MNA aptasensor was inserted into the black B6 mice receiving 1.5 mg/kg cocaine intraperitoneally and illuminated with 532 nm laser on the dorsal skin (FIG. 15B), a significant growth of fluorescence intensity as a function of time due to displacement of QDNA by cocaine was clearly seen on individual microneedles (FIG. 15C), confirming the ability of the aptasensor to detect the illicit drug in real time. […]

[2] = humans; cited from earlier work

Row | SMILES | blood concentration over time [1] | cocaine concentration in blood [2] [mg/L]
1 | CN1[C@H]2CC[C@@H]1[C@@H](C(=O)O)[C@@H](OC(=O)c1ccccc1)C2 [BZE, benzoylecgonine] | increasing sharply at the first 1 min and then stayed in plateau | –
2 | COC(=O)[C@H]1[C@@H](OC(=O)c2ccccc2)C[C@@H]2CC[C@H]1N2C [cocaine] | slightly increased over the 5 min | 0.06 to 0.1
